This is an account of results in patent US5004749A, “Concentrated aqueous solution of glutaraldehyde and 1,2-benzisothiazolin-3-one” (priority 1989, dated 1991).

One series can be described thus: physchem. Format: physicochemical. The method, then:
A pH 3.2 solution was attained by adding 12.5 ml of 0.2 M acetic acid to 100 ml of deionized water. The pH 4.8 solution was prepared by adding 22.5 ml of 0.2 M acetic acid plus 27.5 ml of 0.2 M sodium acetate brought to a total volume of 100 ml with deionized water. Finally the pH of 6.8 solution was created by adding 4.1 ml of 0.2 M sodium acetate plus 1 drop of 0.2 M acetic acid to 100 ml of deionized water. […] Employing the same buffering agents, solutions with 50% aqueous glutaraldehyde were prepared having pH's of 3.2, 4.8 and 6.8 respectively. A twenty ml solution having a pH of 3.2 was attained with 1.45 ml of acetic acid; the twenty ml solution having a pH of 4.8 contained acetic acid and sodium acetate in a 3:1 weight ratio and the twenty ml solution having a pH of 6.8 contained 1.25 g of sodium acetate. The solubility of BIT in each solution was determined as described above.

Series [1] is classed as physicochemical. The protocol: In order to compare the composition of the present invention with that disclosed in U.S. Pat. No. 4,539,071 (Clifford et al) a stable aqueous composition of isothiazolone, the following experiment was performed. To deionized water were added 0.2 percent cupric nitrate, 9 percent magnesium chloride and 15 percent magnesium nitrate, all in percent by weight.

For series [2], the system named is Acinetobacter calcoaceticus, Pseudomonas aeruginosa, Enterobacter cloacae and Escherichia coli. Nature of the series: MIC in calcium carbonate slurry, inoculated weekly, reduction to less than ten colony forming units/ml (Example 3). Format: cell-based. Conditions: for MIC: Calcium Carbonate Slurry. The protocol: Several forty gram samples of a calcium carbonate slurry (Gamma-Fil 90, available from the Georgia Marble Company) which were free of microbial growth, were prepared. These samples were divided into four groups. The first group was dosed with varying amounts of glutaraldehyde (in the form of a 50 percent aqueous solution); the second group was dosed with varying amounts of 1,2-benzisothiazolin-3-one the third group was dosed with varying amounts of glutaraldehyde (in the form of a 50 percent aqueous solution) and of 1,2-benzisothiazolin-3-one (in the form of Proxel® Press Paste) in a 14:1 ratio by weight of glutaraldehyde:BIT a fourth group was left untreated as a control. These samples were each inoculated three times on a weekly basis with an inoculum which contained the following microorganisms: Acinetobacter calcoaceticus, Pseudomonas aeruginosa, Enterobacter cloacae and Escherichia coli. The minimum inhibitory concentration (MIC) values were determined for preservative levels effective in reducing the contaminating microorganisms to less than ten colony forming units/ml for the first three groups. The number of colony forming units/ml in the control group was also determined.
(§1) The results for Examples 3 and 4 were quantified with respect to the synergy shown through the application of an equation described in Berenbaum, M.C. "A method for Testing for Synergy with Any Number of Agents" The Journal of Infectious Diseases, Vol 137, No. 2 pp 122-130 (February, 1978). The relevant equation is as follows: [formula]
(§2) If Z is less than 1, synergy is present. If Z equals 1, additive interaction is present. If Z is greater than 1, an antagonistic interaction is present.

The test system of another series is microbial contamination. Nature of the series: MIC in kaolin slurry with significant microbial spoilage, reduction to less than ten colony forming units/ml (Example 4). Format: cell-based. The method, then:
A sample of kaolin slurry with significant microbial spoilage was dosed with a range of concentrations of 1,2-benzisothiazolin-3-one, glutaraldehyde, and 1,2-benzisothiazolin-3-one plus glutaraldehyde (1:14 weight ratio). A sample was included, antimicrobial free, for control purposes with determinations of the colony forming units/ml. MIC values (in parts per million of Active Ingredient) to reduce microbial contamination to less than ten colony forming units/ml were determined by the absence of detectable growth by dilution plate counts.
as §1, §2

Each structure is given as a SMILES string. ≈ marks a conversion by molar mass, not a printed value.

As usually defined, the solubility is how much of the substance goes into solution per volume. What is called MIC is the smallest concentration in the dilution series that meets the test's criterion for growth inhibition. Consider `O=c1[nH]sc2ccccc12` [BIT, 1,2-benzisothiazolin-3-one], for which the “solubility of 1,2-benzisothiazolin-3-one is increased by the addition of glutaraldehyde” value in the series “physchem” is “increased considerably”. Moreover, the solubility in the series “physchem” (buffered 50% aqueous glutaraldehyde, pH 3.2) amounted to 31.8 mg/mL (≈ 210 mM); in the series “physchem” (buffered 50% aqueous glutaraldehyde, pH 4.8), 33.8 mg/mL (≈ 224 mM); in “physchem” (buffered 50% aqueous glutaraldehyde, pH 6.8), 30.4 mg/mL (≈ 201 mM); in the series “physchem” (buffered deionized water, pH 3.2), 3.2 mg/mL (≈ 21.2 mM); in the series “physchem” (buffered deionized water, pH 4.8) it was 1.1 mg/mL (≈ 7.28 mM); in the series “physchem” (buffered deionized water, pH 6.8), 0.4 mg/mL (≈ 2.65 mM). For the same compound, the “solubility of 1,2-benzisothiazolin-3-one” value in series [1] was “essentially nil”. Moreover, the minimal inhibitory concentration (MIC) is 285 µg/mL in series [2] (Week 1); above 570 µg/mL in series [2] (Week 2); 380 µg/mL in series [2] (Week 3); 178 µg/mL in the series on microbial contamination (24 h, 1 day); above 178 µg/mL with microbial contamination (48 h, 2 days); above 178 µg/mL in the series with microbial contamination (72 h, 3 days). Also, the MIC in the series with microbial contamination (168 h, 7 days) worked out at 133 µg/mL.
Consider `O=CCCCC=O` [Glutaraldehyde, glutaraldehyde], for which the MIC in series [2] (Week 1) is 250 µg/mL; in series [2] (Week 2), 500 µg/mL; in series [2] (Week 3), 500 µg/mL; with microbial contamination (24 h, 1 day), 250 µg/mL; in the series on microbial contamination (48 h, 2 days), 150 µg/mL; with microbial contamination (72 h, 3 days), 200 µg/mL. Also, the MIC with microbial contamination (168 h, 7 days) was 250 µg/mL. Moreover, the “antimicrobial activity/potency on repeated challenge (in words)” value in series [2] (calcium carbonate slurry, second and third challenges with microbial insults) is “undergoes a reduction in antimicrobial activity”.
